Measured values published in ChEMBL document CHEMBL1932960, “Discovery and characterization of a potent and selective antagonist of melanin-concentrating hormone receptor 2” (Bioorg Med Chem Lett, 2012).
Values belong to the compound of their own block, whether it stands above or below them. Activity calls are given as the source filed them. The rule behind the calls is not given here.

How the values were obtained:
[1] = target: T1, Melanin-concentrating hormone receptor 2 (Homo sapiens, UniProt Q969V1); test: Antagonist activity at human MCHR2 receptor expressed in CHO cells assessed as inhibition of MCH-stimulated Ca2+ flux preincubated for 10 mins prior to MCH-stimulation by FLIPR assay; assay type: functional, cell-based
T1 sequence (Q969V1 whole entry): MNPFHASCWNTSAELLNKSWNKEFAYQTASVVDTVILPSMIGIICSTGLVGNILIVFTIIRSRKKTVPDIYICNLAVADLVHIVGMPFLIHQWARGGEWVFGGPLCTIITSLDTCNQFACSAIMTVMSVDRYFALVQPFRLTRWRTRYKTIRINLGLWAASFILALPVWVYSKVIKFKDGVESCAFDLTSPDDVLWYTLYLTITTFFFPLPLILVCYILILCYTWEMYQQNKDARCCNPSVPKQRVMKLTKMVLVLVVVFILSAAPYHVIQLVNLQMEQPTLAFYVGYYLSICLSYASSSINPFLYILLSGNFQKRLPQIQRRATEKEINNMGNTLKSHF

[2] = Clearance in rat at 0.5 mg/kg, iv; assay type: ADME, organism-based; parameters: dose 0.5 mg/kg, route intravenous; details: in vivo
[3] = Mean residence time in rat at 0.5 mg/kg, iv; assay type: ADME, organism-based; parameters: dose 0.5 mg/kg, route intravenous; details: in vivo
[4] = Oral bioavailability in rat at 2 mg/kg; assay type: ADME, organism-based; details: in vivo
D(2) dopamine receptor = D(2) dopamine receptor (Homo sapiens, UniProt P14416); test: Inhibition of dopamine D2 receptor
Chain of D(2) dopamine receptor (P14416 whole entry): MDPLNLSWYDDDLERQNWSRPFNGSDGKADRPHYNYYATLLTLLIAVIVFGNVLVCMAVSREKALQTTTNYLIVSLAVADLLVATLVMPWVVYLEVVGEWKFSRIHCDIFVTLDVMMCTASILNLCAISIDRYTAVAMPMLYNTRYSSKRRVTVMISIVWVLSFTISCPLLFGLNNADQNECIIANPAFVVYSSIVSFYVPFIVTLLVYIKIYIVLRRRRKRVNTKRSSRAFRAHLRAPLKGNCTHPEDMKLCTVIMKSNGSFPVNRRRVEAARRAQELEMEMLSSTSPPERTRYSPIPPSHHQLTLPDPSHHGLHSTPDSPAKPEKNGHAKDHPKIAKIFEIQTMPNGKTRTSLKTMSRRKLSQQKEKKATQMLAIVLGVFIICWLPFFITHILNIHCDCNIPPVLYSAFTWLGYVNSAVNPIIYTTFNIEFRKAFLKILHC

[5] = target: Sodium-dependent serotonin transporter (Homo sapiens, UniProt P31645); test: Inhibition of serotonin transporter
Chain of Sodium-dependent serotonin transporter (P31645 whole entry): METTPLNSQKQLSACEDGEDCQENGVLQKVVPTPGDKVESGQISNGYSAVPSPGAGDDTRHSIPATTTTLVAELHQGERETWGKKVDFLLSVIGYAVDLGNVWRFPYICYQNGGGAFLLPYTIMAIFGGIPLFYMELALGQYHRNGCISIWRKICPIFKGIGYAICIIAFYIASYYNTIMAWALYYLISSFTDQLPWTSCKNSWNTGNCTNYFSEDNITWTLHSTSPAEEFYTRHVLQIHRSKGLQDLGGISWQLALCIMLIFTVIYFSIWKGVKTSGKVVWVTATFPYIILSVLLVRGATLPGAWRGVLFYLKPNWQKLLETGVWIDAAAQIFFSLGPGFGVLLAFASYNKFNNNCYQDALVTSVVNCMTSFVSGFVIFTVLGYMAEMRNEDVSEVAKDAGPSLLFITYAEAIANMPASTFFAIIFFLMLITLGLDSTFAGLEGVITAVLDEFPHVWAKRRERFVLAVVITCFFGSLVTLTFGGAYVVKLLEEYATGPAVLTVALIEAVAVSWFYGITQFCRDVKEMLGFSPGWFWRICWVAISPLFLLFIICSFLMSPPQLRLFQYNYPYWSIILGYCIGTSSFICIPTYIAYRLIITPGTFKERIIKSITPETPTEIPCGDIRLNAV

[6] = target: T1, Melanin-concentrating hormone receptor 2; test: Displacement of [3H]N-(1'-((9-ethyl-9H-carbazol-3-yl)methyl)-2,3-dihydrospiro[indene-1,4'-piperidine]-3-yl)acetamide from human MCHR2 expressed in HEK293 cells after 2 hrs; assay type: cell-based
[7] = target: T2, Melanin-concentrating hormone receptor 1 (Homo sapiens, UniProt Q99705); test: Binding affinity to MCHR1 up to 10 uM
T2 sequence (Q99705 whole entry): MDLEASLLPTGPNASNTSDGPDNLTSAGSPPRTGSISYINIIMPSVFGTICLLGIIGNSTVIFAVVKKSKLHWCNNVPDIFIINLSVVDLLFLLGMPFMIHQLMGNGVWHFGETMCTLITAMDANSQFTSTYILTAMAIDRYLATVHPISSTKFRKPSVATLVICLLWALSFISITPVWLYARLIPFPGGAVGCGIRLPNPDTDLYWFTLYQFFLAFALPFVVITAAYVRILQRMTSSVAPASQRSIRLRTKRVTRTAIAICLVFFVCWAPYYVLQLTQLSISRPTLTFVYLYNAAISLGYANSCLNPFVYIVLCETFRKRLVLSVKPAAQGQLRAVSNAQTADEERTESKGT

[8] = target: T2, Melanin-concentrating hormone receptor 1; test: Antagonist activity at MCHR1 up to 50 uM by FLIPR assay; assay type: functional
[9] = Clearance in Beagle dog; assay type: ADME, organism-based, Canis lupus familiaris; details: in vivo
[10] = Mean residence time in Beagle dog; assay type: ADME, organism-based, Canis lupus familiaris; details: in vivo
[11] = Oral bioavailability in Beagle dog at 2 mg/kg; assay type: ADME, organism-based, Canis lupus familiaris; details: in vivo
[12] = Clearance in rhesus monkey; assay type: ADME, organism-based, Macaca mulatta; details: in vivo
[13] = Mean residence time in rhesus monkey; assay type: ADME, organism-based, Macaca mulatta; details: in vivo
[14] = Oral bioavailability in rhesus monkey at 2 mg/kg; assay type: ADME, organism-based, Macaca mulatta; details: in vivo
Homo sapiens [15] = species on record: Homo sapiens; test: Selectivity ratio of IC50 for serotonin transporter to IC50 for human MCHR2 receptor
Homo sapiens [16] = species on record: Homo sapiens; test: Selectivity ratio of IC50 for dopamine D2 receptor to IC50 for human MCHR2 receptor
[17] = target: Voltage-gated inwardly rectifying potassium channel KCNH2 (Homo sapiens, UniProt Q12809); test: Inhibition of human ERG by rubidium [86Rb] efflux assay
Chain of Voltage-gated inwardly rectifying potassium channel KCNH2 (Q12809 whole entry): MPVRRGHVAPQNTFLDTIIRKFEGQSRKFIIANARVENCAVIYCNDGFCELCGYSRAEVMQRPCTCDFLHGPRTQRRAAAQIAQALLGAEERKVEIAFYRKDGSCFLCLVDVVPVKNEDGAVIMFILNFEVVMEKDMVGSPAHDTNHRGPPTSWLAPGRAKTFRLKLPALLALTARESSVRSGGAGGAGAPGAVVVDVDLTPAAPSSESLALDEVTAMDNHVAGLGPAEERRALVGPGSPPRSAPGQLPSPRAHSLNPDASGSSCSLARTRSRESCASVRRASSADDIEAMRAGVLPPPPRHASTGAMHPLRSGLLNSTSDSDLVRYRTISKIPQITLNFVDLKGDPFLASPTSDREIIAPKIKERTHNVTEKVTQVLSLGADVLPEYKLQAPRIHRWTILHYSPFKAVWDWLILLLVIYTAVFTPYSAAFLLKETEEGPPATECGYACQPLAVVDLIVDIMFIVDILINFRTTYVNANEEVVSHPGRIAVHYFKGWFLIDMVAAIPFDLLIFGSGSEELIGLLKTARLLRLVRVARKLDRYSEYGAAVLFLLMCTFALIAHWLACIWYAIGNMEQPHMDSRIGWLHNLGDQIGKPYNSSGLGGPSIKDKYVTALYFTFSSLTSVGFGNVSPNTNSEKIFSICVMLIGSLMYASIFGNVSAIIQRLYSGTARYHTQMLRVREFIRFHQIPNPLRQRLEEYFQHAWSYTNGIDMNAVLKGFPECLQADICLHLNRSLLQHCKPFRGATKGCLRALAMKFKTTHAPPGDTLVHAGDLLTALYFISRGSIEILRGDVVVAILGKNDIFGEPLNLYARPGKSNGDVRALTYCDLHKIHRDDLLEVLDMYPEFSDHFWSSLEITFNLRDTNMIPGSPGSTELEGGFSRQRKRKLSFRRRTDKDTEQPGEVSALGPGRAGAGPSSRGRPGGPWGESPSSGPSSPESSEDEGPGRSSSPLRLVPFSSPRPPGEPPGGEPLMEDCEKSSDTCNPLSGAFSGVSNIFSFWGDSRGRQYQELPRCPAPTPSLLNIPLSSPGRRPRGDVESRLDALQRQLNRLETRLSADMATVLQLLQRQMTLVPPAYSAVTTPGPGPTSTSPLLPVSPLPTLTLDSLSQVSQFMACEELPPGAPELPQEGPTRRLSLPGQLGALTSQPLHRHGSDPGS

[18] = target: T2, Melanin-concentrating hormone receptor 1; test: Antagonist activity at MCHR1 by FLIPR assay; assay type: functional

Compound: CCn1c2ccccc2c2cc(CN3CCC4(CC3)c3ccccc3[C@H](O)[C@@H]4O)ccc21 (racemic)
IC50 [1]: 250 nM

Compound: CC(=O)N[C@@H]1CC2(CCN(Cc3ccc4[nH]c5ccc(C(F)(F)F)cc5c4c3)CC2)c2ccccc21
IC50 [1]: 678 nM

Compound: CC(=O)N[C@@H]1CC2(CCN(Cc3ccc4[nH]c5ccccc5c4c3)CC2)c2ccccc21
IC50 [1]: 0.1 nM | clearance [2]: 20 mL/min/kg | MRT [3]: 18.2 h | bioavailability [4]: 7.5%

Compound: CCn1c2ccccc2c2cc(CN3CCC4(CC3)c3ccccc3[C@H](O)[C@H]4O)ccc21 (racemic)
IC50 [1]: 150 nM

Compound: CC(=O)N[C@H]1c2ccccc2C2(CCN(Cc3ccc4[nH]c5ccccc5c4c3)CC2)[C@@H]1O (racemic)
IC50 [1]: 8 nM

Compound: CC(=O)N[C@@H]1CC2(CCN(Cc3ccc4[nH]c5ccc(Cl)cc5c4c3)CC2)c2ccccc21
IC50 [1]: 1 nM | IC50 (D(2) dopamine receptor): 500 nM | IC50 [5]: 100 nM | clearance [2]: 13.3 mL/min/kg | MRT [3]: 9.2 h | bioavailability [4]: 49%

Compound: O[C@H]1Cc2ccccc2C12CCN(Cc1ccc3[nH]c4ccccc4c3c1)CC2
IC50 [1]: 80 nM

Compound: CC(=O)N[C@@H]1CC2(CCN(Cc3ccc4c(c3)c3ccccc3n4C(N)=O)CC2)c2ccccc21
IC50 [1]: 1 nM | Ki [6]: 13 nM | Activity [7]: inactive | Activity [8]: inactive | IC50 (D(2) dopamine receptor): 1500 nM | IC50 [5]: 10000 nM | clearance [2]: 16.7 mL/min/kg | MRT [3]: 18 h | bioavailability [4]: 37% | clearance [9]: 10 mL/min/kg | MRT [10]: 11 h | bioavailability [11]: 73% | clearance [12]: 10 mL/min/kg | MRT [13]: 6.1 h | bioavailability [14]: 47% | Ratio IC50 (Homo sapiens [15]): > 500 | Ratio IC50 (Homo sapiens [16]): > 500 | IC50 [17]: 2000 nM

Compound: CC(=O)N[C@H]1CC2(CCN(Cc3ccc4[nH]c5ccccc5c4c3)CC2)c2ccccc21
IC50 [1]: 13 nM

Compound: CCC(=O)n1c2ccccc2c2cc(CN3CCC4(C=Cc5ccccc54)CC3)ccc21
IC50 [1]: 100 nM

Compound: CS(=O)(=O)n1c2ccccc2c2cc(CN3CCC4(C=Cc5ccccc54)CC3)ccc21
IC50 [1]: 200 nM

Compound: CC(=O)N[C@@H]1CC2(CCN(Cc3ccc4[nH]c5ccc(F)cc5c4c3)CC2)c2ccccc21
IC50 [1]: 10 nM

Compound: O[C@@H]1Cc2ccccc2C12CCN(Cc1ccc3[nH]c4ccccc4c3c1)CC2
IC50 [1]: 10 nM | clearance [2]: 145 mL/min/kg | MRT [3]: 2.8 h | bioavailability [4]: 5.9%

Compound: C1=CC2(CCN(Cc3ccc4[nH]c5ccccc5c4c3)CC2)c2ccccc21
IC50 [1]: 100 nM

Compound: NC(=O)n1c2ccccc2c2cc(CN3CCC4(C=Cc5ccccc54)CC3)ccc21
IC50 [1]: 4 nM

Compound: COC(=O)n1c2ccccc2c2cc(CN3CCC4(C=Cc5ccccc54)CC3)ccc21
IC50 [1]: 300 nM

Compound: CCn1c2ccccc2c2cc(CN3CCC4(CC3)c3ccccc3[C@H](NC(C)=O)[C@H]4O)ccc21 (racemic)
IC50 [1]: 100 nM | clearance [2]: 36.7 mL/min/kg | MRT [3]: 14.2 h | bioavailability [4]: 9%

Compound: CC(=O)N[C@@H]1CC2(CCN(Cc3ccc4[nH]c5ccc(Br)cc5c4c3)CC2)c2ccccc21
IC50 [1]: 10 nM

Compound: CCn1c2ccccc2c2cc(CCN3CCC4(C=Cc5ccccc54)CC3)ccc21
IC50 [1]: 10000 nM

Compound: CN(C)C(=O)n1c2ccccc2c2cc(CN3CCC4(C=Cc5ccccc54)CC3)ccc21
IC50 [1]: 4 nM

More lines, now with the values ahead:

IC50 [1]: 15000 nM
Compound: CCn1c2ccccc2c2cc(CCCN3CCC4(C=Cc5ccccc54)CC3)ccc21

IC50 [1]: 60000 nM
Compound: CCn1c2ccccc2c2cc(C(=O)N3CCC4(C=Cc5ccccc54)CC3)ccc21

IC50 [1]: 250 nM
Compound: CCn1c2ccccc2c2cc(CN3CCC4(CC3)c3ccccc3CC4NC(C)=O)ccc21 (racemic)

IC50 [1]: 0.1 nM
Compound: CCn1c2ccccc2c2cc(CN3CCC4(CC3)CC(NC(C)=O)c3ccccc34)ccc21 (racemic)

IC50 [1]: 1000 nM | IC50 [18]: 20000 nM
Compound: CCn1c2ccccc2c2cc(CN3CCC4(C=Cc5ccccc54)CC3)ccc21

IC50 [1]: 200 nM
Compound: CCn1c2ccccc2c2cc(CN3CCC4(CC3)CC(O)c3ccccc34)ccc21 (racemic)

IC50 [1]: 60000 nM
Compound: CCn1c2ccccc2c2cc(NC(=O)N3CCC4(C=Cc5ccccc54)CC3)ccc21

IC50 [1]: 30 nM
Compound: CCn1c2ccccc2c2cc(CN3CCC4(CC3)c3ccccc3CC4O)ccc21 (racemic)

IC50 [1]: 70 nM
Compound: CC(=O)n1c2ccccc2c2cc(CN3CCC4(C=Cc5ccccc54)CC3)ccc21
